According to ChEMBL document CHEMBL5724914, “Linking interpersonal differences in gut microbiota composition and drug biotransformation activity” (2024):

Legend:
[1] = (§1) The drug is tested on WLS-082 corresponding to human gut metagenome with ENA study accession number: PRJEB37062 and ENA sample accession number: ERS12561751 for biotransformation under anaerobic condition. The drug concentrations were measured over 9 timepoints collected between 0 and 24 hours of incubation by liquid-chromatography-coupled mass spectrometry (LC–MS); conditions: 2 µM
[2] = as §1, with “WLS-098” for “WLS-082”, “ERS12561754” for “ERS12561751”; conditions: 2 µM
[3] = as §1, with “WLS-038” for “WLS-082”, “ERS12561745” for “ERS12561751”; conditions: 2 µM
[4] = as §1, with “Z-013” for “WLS-082”, “rabbit” for “human”, “ERS12561813” for “ERS12561751”; conditions: 2 µM
[5] = as §1, with “Z-010” for “WLS-082”, “to” for “to human gut”, “ERS12561810” for “ERS12561751”; conditions: 2 µM
[6] = as §1, with “WLS-350” for “WLS-082”, “ERS12561789” for “ERS12561751”; conditions: 2 µM
[7] = human gut metagenome, 24 h, 2 µM
[8] = as §1, with “WLS-240” for “WLS-082”, “ERS12561773” for “ERS12561751”; conditions: 2 µM
[9] = as §1, with “Z-018” for “WLS-082”, “pig” for “human”, “ERS12561817” for “ERS12561751”; conditions: 2 µM
[10] = human gut metagenome, 24 h, 2 µM; remark: listed apart in the source
[11] = as §1, with “Z-028” for “WLS-082”, “mouse” for “human”, “ERS12561827” for “ERS12561751”; conditions: 2 µM
[12] = human gut metagenome, 24 h, 2 µM; remark: listed apart in the source
[13] = as §1, with “Z-002” for “WLS-082”, “rabbit” for “human”, “ERS12561802” for “ERS12561751”; conditions: 2 µM
[14] = human gut metagenome, 24 h, 2 µM; remark: listed apart in the source
[15] = human gut metagenome, 24 h, 2 µM; remark: listed apart in the source
[16] = as §1, with “WLS-370” for “WLS-082”, “ERS12561793” for “ERS12561751”; conditions: 2 µM
[17] = human gut metagenome, 24 h, 2 µM; remark: listed apart in the source
[18] = as §1, with “Z-029” for “WLS-082”, “rat” for “human”, “ERS12561828” for “ERS12561751”; conditions: 2 µM
[19] = as §1, with “Z-012” for “WLS-082”, “to” for “to human gut”, “ERS12561812” for “ERS12561751”; conditions: 2 µM
[20] = human gut metagenome, 24 h, 2 µM; remark: listed apart in the source
Further: call rule not given here.

Structure (SMILES) | Bacterial Biotransformation [1] | Bacterial Biotransformation [2] | Bacterial Biotransformation [3] | Bacterial Biotransformation [4] | Bacterial Biotransformation [5] | Bacterial Biotransformation [6] | Bacterial Biotransformation [7] | Bacterial Biotransformation [8] | Bacterial Biotransformation [9] | Bacterial Biotransformation [10] | Bacterial Biotransformation [11] | Bacterial Biotransformation [12] | Bacterial Biotransformation [13] | Bacterial Biotransformation [14] | Bacterial Biotransformation [15] | Bacterial Biotransformation [16] | Bacterial Biotransformation [17] | Bacterial Biotransformation [18] | Bacterial Biotransformation [19] | Bacterial Biotransformation [20]
CC(C)NCC(O)COc1ccc(COCCOC(C)C)cc1.CC(C)NCC(O)COc1ccc(COCCOC(C)C)cc1.O=C(O)/C=C/C(=O)O (stereo not given) [BISOPROLOL FUMARATE] | Compound NOT metabolized | Compound metabolized | Compound NOT metabolized | Compound NOT metabolized | Compound NOT metabolized | Compound NOT metabolized | Compound NOT metabolized | Compound metabolized | Compound NOT metabolized | Compound NOT metabolized | Compound NOT metabolized | Compound metabolized | Compound metabolized | Compound metabolized | Compound NOT metabolized | Compound NOT metabolized | Compound NOT metabolized | Compound NOT metabolized | Compound NOT metabolized | Compound metabolized
CCCCCOC(=O)Nc1nc(=O)n([C@@H]2O[C@H](C)[C@@H](O)[C@H]2O)cc1F [CAPECITABINE] | Compound metabolized | Compound metabolized | Compound metabolized | Compound metabolized | Compound metabolized | Compound metabolized | Compound metabolized | Compound metabolized | Compound metabolized | Compound metabolized | Compound metabolized | Compound metabolized | Compound metabolized | Compound metabolized | Compound NOT metabolized | Compound metabolized | Compound metabolized | Compound metabolized | Compound metabolized | Compound metabolized
Cc1ccc(-c2cc(C(F)(F)F)nn2-c2ccc(S(N)(=O)=O)cc2)cc1 [CELECOXIB] | Compound metabolized | Compound NOT metabolized | Compound metabolized | Compound NOT metabolized | Compound NOT metabolized | Compound NOT metabolized | Compound NOT metabolized | Compound metabolized | Compound NOT metabolized | Compound NOT metabolized | Compound NOT metabolized | Compound metabolized | Compound NOT metabolized | Compound NOT metabolized | Compound NOT metabolized | Compound metabolized | Compound metabolized | Compound NOT metabolized | Compound NOT metabolized | Compound metabolized
Clc1ccc(Cn2c(CN3CCCC3)nc3ccccc32)cc1 [CLEMIZOLE] | Compound metabolized | Compound metabolized | Compound metabolized | Compound metabolized | Compound metabolized | Compound metabolized | Compound metabolized | Compound metabolized | Compound metabolized | Compound NOT metabolized | Compound NOT metabolized | Compound metabolized | Compound metabolized | Compound metabolized | Compound NOT metabolized | Compound metabolized | Compound NOT metabolized | Compound NOT metabolized | Compound NOT metabolized | Compound metabolized
CN1CCN(C2=Nc3cc(Cl)ccc3Nc3ccccc32)CC1 [CLOZAPINE] | Compound NOT metabolized | Compound metabolized | Compound NOT metabolized | Compound NOT metabolized | Compound NOT metabolized | Compound metabolized | Compound NOT metabolized | Compound metabolized | Compound NOT metabolized | Compound NOT metabolized | Compound NOT metabolized | Compound NOT metabolized | Compound metabolized | Compound metabolized | Compound NOT metabolized | Compound metabolized | Compound NOT metabolized | Compound NOT metabolized | Compound NOT metabolized | Compound metabolized
COc1cc2c(c(OC)c1OC)-c1ccc(OC)c(=O)cc1[C@@H](NC(C)=O)CC2 [COLCHICINE] | Compound metabolized | Compound NOT metabolized | Compound NOT metabolized | Compound NOT metabolized | Compound metabolized | Compound NOT metabolized | Compound metabolized | Compound metabolized | Compound NOT metabolized | Compound NOT metabolized | Compound NOT metabolized | Compound NOT metabolized | Compound metabolized | Compound metabolized | Compound NOT metabolized | Compound NOT metabolized | Compound metabolized | Compound NOT metabolized | Compound NOT metabolized | Compound metabolized
CC(=O)OCC(=O)[C@@]12N=C(C)O[C@@H]1C[C@H]1[C@@H]3CCC4=CC(=O)C=C[C@]4(C)[C@H]3[C@@H](O)C[C@@]12C [DEFLAZACORT] | Compound metabolized | Compound metabolized | Compound metabolized | Compound metabolized | Compound metabolized | Compound metabolized | Compound metabolized | Compound metabolized | Compound metabolized | Compound metabolized | Compound metabolized | Compound metabolized | Compound metabolized | Compound metabolized | Compound metabolized | Compound metabolized | Compound metabolized | Compound NOT metabolized | Compound metabolized | Compound metabolized
CN(C)CC(c1ccc(O)cc1)C1(O)CCCCC1.O=C(O)CCC(=O)O (stereo not given) [DESVENLAFAXINE SUCCINATE] | Compound NOT metabolized | Compound NOT metabolized | Compound NOT metabolized | Compound NOT metabolized | Compound NOT metabolized | Compound NOT metabolized | Compound NOT metabolized | Compound NOT metabolized | Compound NOT metabolized | Compound NOT metabolized | Compound NOT metabolized | Compound NOT metabolized | Compound NOT metabolized | Compound NOT metabolized | Compound NOT metabolized | Compound NOT metabolized | Compound NOT metabolized | Compound NOT metabolized | Compound NOT metabolized | Compound NOT metabolized
